Here are results for 6 molecules from patent US9782415B2, “Substituted pyrazolo[1,5-a]pyrimidine compounds as Trk kinase inhibitors” (Array BioPharma, Inc., priority 2009, dated 2017).

In general, pIC50 refers to −log10 of the IC50, conventionally taken in molar units. For orientation: inhibition means the change of the read-out against control, counted positive when it falls.

Common to all, as to format: biochemical
Experiment [1] has as its target histidine-tagged recombinant human TrkA, cytoplasmic domain (Homo sapiens (Human), UniProt P04629). In words: TrkA ELISA Assay. The following applies: Table 1, 500 μM ATP, read-out: TrkA Enzyme IC50. As to the method:
An enzyme-linked immunosorbant assay (ELISA) was used to assess TrkA kinase activity in the presence of inhibitors. […] The assay buffer consisted of 25 mM MOPS pH 7.5, 0.005% (v/v) Triton X-100 and 5 mM MgCl2. The reaction mixture was removed from the plate by washing with PBS containing 0.1% (v/v) Tween 20. […] After the addition of 1M phosphoric acid, the chromogenic substrate color intensity was quantitated via absorbance at 450 nm.
Background: An ELISA detects its analyte on a solid surface through an enzyme-linked reagent.

The next experiment concerns the target Human Jak2 kinase domain (Homo sapiens (Human), UniProt O60674). The experiment in a line: Jak2 Inhibition Assay (Omnia kinase assay). From the text:
The assays described in Examples C, D, E and F for the determination of JAK1, JAK2, JAK3 and Tyk2 kinase activity, respectively, utilized the Omnia® Kinase fluorescence peptide substrate-based technology (Invitrogen). The specific components of the assay mixture are described in Examples C, D and E. […] Two-μL aliquots of these were transferred to a fresh plate for a ten-fold intermediate dilution with assay buffer. […] Human Jak2 kinase domain comprising amino acids 808-1132 was purchased from Invitrogen Corporation, Carlsbad, Calif.

The next experiment has as its target Human Tyk2 kinase domain (Homo sapiens (Human), UniProt P29597). The experiment in a line: Tyk2 Inhibition Assay (Omnia kinase assay). The following applies: Table 2; 500 μM ATP. The method, then: (§1) The assays described in Examples C, D, E and F for the determination of JAK1, JAK2, JAK3 and Tyk2 kinase activity, respectively, utilized the Omnia® Kinase fluorescence peptide substrate-based technology (Invitrogen). […] The reactions were therefore read at excitation 360 nm and emission was measured at 485 nm every 50 seconds for 45 minutes using a PerkinElmer EnVision Multilabel Plate Reader.
(§2) The final buffer conditions for each of the JAK1, JAK2, JAK3 and Tyk2 assays were as follows: 25 mM HEPES, pH 7.4, 10 mM MgCl2, 0.01% Triton X-100 and 1 mM DTT.
(§3) Compounds were prepared at 50× the final concentration in DMSO by conducting 3-fold serial dilutions from a 500-μM or 1000-μM intermediate dilution to give a 10-point dosing curve having a high dose of 10 or 20 μM. Two-μL aliquots of these were transferred to a fresh plate for a ten-fold intermediate dilution with assay buffer. Five-μL aliquots of the diluted compounds were then transferred to 20-μL of assay mixtures described in Examples C, D, E and F for a final concentration of DMSO of 2%. A standard or reference compound was typically included on each assay plate to validate that plate. For each plate, percent of control (POC) values were calculated for each well according to the following equation: […]
(§4) IC50's were estimated from the POC's using a standard 4-parameter logistic model: […]

For experiment [2], the target named is GST-tagged human Jak1 kinase domain (Homo sapiens (Human), UniProt P23458). The experiment in a line: Jak1 Inhibition Assay (Omnia kinase assay). The settings on record: Table 2; 500 μM ATP. As to the method: as §1, §2, §3, §4
Experiment [3] has as its target GST-tagged human Jak3 kinase domain (Homo sapiens (Human), UniProt P52333). In words: Jak3 Inhibition Assay (Omnia kinase assay). The following applies: Table 2; 500 μM ATP. The method, then:
as §1, §2, §3, §4

The mark [4] stands for this setting: read-out: Jak2 Enzyme % inhibition at 1000 nM, Table 1, 1000 nM test compound.

pIC50: −log10 of the molar value. Like-named read-outs stand apart in the source and are kept apart here.

Chain of Human Jak2 kinase domain (O60674 808-1132): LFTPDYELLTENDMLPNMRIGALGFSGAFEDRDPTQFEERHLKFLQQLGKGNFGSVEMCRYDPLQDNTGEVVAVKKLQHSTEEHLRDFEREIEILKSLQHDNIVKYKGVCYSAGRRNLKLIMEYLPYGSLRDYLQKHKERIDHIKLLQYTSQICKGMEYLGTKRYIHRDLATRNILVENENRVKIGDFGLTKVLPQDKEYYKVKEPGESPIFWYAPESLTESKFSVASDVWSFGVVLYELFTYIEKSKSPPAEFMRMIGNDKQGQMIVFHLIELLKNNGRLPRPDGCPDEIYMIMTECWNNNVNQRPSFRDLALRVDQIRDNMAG
Chain of Human Tyk2 kinase domain (P29597 886-1187): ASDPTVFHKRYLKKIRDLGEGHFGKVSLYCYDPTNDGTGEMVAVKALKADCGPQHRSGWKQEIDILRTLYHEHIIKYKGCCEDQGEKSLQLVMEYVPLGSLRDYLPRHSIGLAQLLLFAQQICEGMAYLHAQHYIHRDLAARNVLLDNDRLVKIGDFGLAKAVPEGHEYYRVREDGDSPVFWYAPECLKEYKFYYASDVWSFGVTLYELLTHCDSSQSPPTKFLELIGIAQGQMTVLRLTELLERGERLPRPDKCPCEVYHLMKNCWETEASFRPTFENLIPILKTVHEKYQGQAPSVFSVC
Chain of GST-tagged human Jak1 kinase domain (P23458 866-1154): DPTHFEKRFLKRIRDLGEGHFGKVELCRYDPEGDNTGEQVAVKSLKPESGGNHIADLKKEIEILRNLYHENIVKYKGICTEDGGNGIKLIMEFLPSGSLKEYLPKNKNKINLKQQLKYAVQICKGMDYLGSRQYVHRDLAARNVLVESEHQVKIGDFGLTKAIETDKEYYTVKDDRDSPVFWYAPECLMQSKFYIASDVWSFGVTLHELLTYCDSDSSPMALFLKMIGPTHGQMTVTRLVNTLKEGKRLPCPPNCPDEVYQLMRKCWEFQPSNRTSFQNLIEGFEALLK
Chain of histidine-tagged recombinant human TrkA, cytoplasmic domain (P04629 440-796): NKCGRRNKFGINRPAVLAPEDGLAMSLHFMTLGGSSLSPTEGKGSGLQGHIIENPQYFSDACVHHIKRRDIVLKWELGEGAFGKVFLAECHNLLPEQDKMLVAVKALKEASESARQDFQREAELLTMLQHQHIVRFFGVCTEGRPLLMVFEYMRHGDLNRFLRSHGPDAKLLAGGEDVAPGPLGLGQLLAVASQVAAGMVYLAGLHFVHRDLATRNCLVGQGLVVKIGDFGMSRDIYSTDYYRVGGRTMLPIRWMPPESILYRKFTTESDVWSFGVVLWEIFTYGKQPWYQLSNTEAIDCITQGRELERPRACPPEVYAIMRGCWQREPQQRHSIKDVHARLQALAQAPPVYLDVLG
Chain of GST-tagged human Jak3 kinase domain (P52333 781-1124): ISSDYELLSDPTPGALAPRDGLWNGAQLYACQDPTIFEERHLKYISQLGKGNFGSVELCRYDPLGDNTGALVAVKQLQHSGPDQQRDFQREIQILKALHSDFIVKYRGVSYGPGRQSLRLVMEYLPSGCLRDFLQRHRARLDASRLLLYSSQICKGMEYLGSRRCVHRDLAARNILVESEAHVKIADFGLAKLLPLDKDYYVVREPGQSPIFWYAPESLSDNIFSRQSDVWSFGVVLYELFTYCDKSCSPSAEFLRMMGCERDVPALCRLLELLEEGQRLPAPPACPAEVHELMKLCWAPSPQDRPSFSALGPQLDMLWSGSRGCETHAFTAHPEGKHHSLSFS

With `Cc1ncc(F)cc1[C@H]1CCCN1c1ccn2ncc(C(=O)N[C@@H]3CCC[C@H]3O)c2n1` [Example 197, 5-((R)-2-(5-fluoro-2-methylpyridin-3-yl)pyrrolidin-1-yl)-N-((1R,2R)-2-hydroxycyclopentyl)pyrazolo[1,5-a]pyrimidine-3-carboxamide], the pIC50 in experiment [1] is 8.32; at Human Jak2 kinase domain (Table 1, 500 μM ATP, >1000 nM when >50% inhibition not observed at 1000 nM, read-out: Jak2 Enzyme IC50), below 6.00.

The molecule `COc1ncc(F)cc1[C@H]1CCCN1c1ccn2ncc(C(=O)N[C@H]3CC[C@H](O)CC3)c2n1` [Example 140, 5-((R)-2-(5-fluoro-2-methoxypyridin-3-yl)pyrrolidin-1-yl)-N-((trans)-4-hydroxycyclohexyl)pyrazolo[1,5-a]pyrimidine-3-carboxamide] showed a pIC50 at Human Tyk2 kinase domain below 6.00.

With `Cc1ncc(F)cc1[C@H]1CCCN1c1ccn2ncc(C(=O)N[C@H]3CC[C@H](O)CC3)c2n1` [Example 194, 5-((R)-2-(5-fluoro-2-methylpyridin-3-yl)pyrrolidin-1-yl)-N-((trans)-4-hydroxycyclohexyl)pyrazolo[1,5-a]pyrimidine-3-carboxamide], the pIC50 (in experiment [2]; in experiment [3]; against Human Tyk2 kinase domain) was below 6.00 in each case.

For the molecule `O=C(N[C@H]1CC[C@@H](O)CC1)c1cnn2ccc(N3CCC[C@@H]3c3cncc(F)c3)nc12` [Example 100, 5-((R)-2-(5-fluoropyridin-3-yl)pyrrolidin-1-yl)-N-((cis)-4-hydroxycyclohexyl)pyrazolo[1,5-a]pyrimidine-3-carboxamide], the inhibition at 1 µM at Human Jak2 kinase domain (setting [4]) amounted to 13.8%.

Take `O=C(N[C@@H]1C2CC[C@@H](C2)[C@@H]1CO)c1cnn2ccc(N3CCC[C@@H]3c3cncc(F)c3)nc12` [Example 138, 5-((R)-2-(5-fluoropyridin-3-yl)pyrrolidin-1-yl)-N-((2R,3S,4S)-3-(hydroxymethyl)bicyclo[2.2.1]heptan-2-yl)pyrazolo[1,5-a]pyrimidine-3-carboxamide]: on Human Jak2 kinase domain (read-out: Jak2 Enzyme % inhibition at 1000 nM), the inhibition at 1 µM stood at 10%.

Regarding `O=C(N[C@H]1CC[C@H](O)CC1)c1cnn2ccc(N3CCC[C@@H]3c3cncc(F)c3)nc12` [Example 99, 5-((R)-2-(5-fluoropyridin-3-yl)pyrrolidin-1-yl)-N-((trans)-4-hydroxycyclohexyl)pyrazolo[1,5-a]pyrimidine-3-carboxamide], the inhibition at 1 µM at Human Jak2 kinase domain (setting [4]) worked out at 45.8%.
